Experimental data from publication PMC8413292, “Small-molecule polymerase inhibitor protects non-human primates from measles and reduces shedding” (Nature Communications, 2021).
“And” between values parts separate entries of the source, which are not always exact repeats. Equal entries are not always repeated.

Legend:
[1] = Trough serum concentration during 14-day b.i.d. oral treatment of infected squirrel monkeys; details: for ERDRP-0519 trough serum concentration: 50 mg/kg b.i.d. oral
Procedure: (§1) All animal experiments were carried out in compliance with the regulations of German animal protection laws and authorized by the Regierungspräsidium Darmstadt, Germany (Dezernat V54 – Veterinärwesen und Verbraucherschutz, Hilpertstrasse 31, 64295 Darmstadt). Adult male and female squirrel monkeys (Saimiri sciureus) were obtained from BioPRIM, 31450 Baziege, or CNRS 0846 Primatologie, 13790 Rousset, France. Each experimental group was housed in a separate room, and animals of the same sex were caged together within the respective groups. For the single-dose pharmacokinetic experiment, animals were anesthetized, and the drug was given through a stomach tube at a concentration of 50 mg/kg bodyweight. Blood samples were collected after 15, 30, and 60 min, and 2, 3, 6, and 24 h. For efficacy assessment, groups of 6 animals were left untreated or treated with 50 mg/kg of ERDRP-0519 twice daily for two weeks, starting either 12 h before or 3 or 7 days after intranasal infection with 10^6 TCID50 of MV/FrankfurtMain.DEU/17.11. Clinical signs, rectal temperature, and weight were recorded daily, and throat swabs and blood samples were collected before infection and twice weekly thereafter. On day 21 post-infection, the animals were euthanized, necropsied, and samples were collected for histological analysis.
Drug concentrations were determined using an internal standard and a reversed phase isocratic HPLC method with positive ion electrospray ionization (ESI) mass spectrometry detection (LC/MS/MS) on an AB-SCIEX API 5500 MS/MS instrument (5 μl injection volume). Pharmacokinetic parameters were estimated using WinNonlin 5.3 (Pharsight).

[2] = tested on: MV/FrankfurtMain.DEU/17.11 (genotype D8); experiment: Rectal temperature of MeV-infected squirrel monkeys; format: in vivo, squirrel monkeys (Saimiri sciureus); details: for Temperature: individual animals
Procedure: as §1

[3] = tested on: MV/FrankfurtMain.DEU/17.11 (genotype D8); experiment: Neutralizing antibody titers in serum; format: in vivo, squirrel monkeys (Saimiri sciureus); details: lower limit of detection = 10
Procedure: White blood cell counts, viral load quantification in PBMCs, and quantification of neutralizing antibody titers were performed as follows: for white blood cell counts, blood was diluted 1:100 in 3% acetic acid and cells were counted using a Neubauer chamber. For viral load quantification in PBMCs, blood was centrifuged at 3000 rpm for 15 min and serum was frozen at −20 °C until further use. Red blood cell lysis was performed and the remaining PBMCs were counted using a Neubauer chamber. Viral titers in PBMCs were quantified in quadruplicates using limited dilution method and calculated as TCID50/10^6 PBMCs. Neutralizing antibody titers were quantified by incubating MeV with 2-fold serial dilutions of the respective serum for 20 min at room temperature in quadruplicates. Vero/hSLAM cells were added and incubated for 3 days at 37 °C. Neutralizing antibody titers are expressed as the reciprocal of the highest serum dilution showing no signs of infection. For virus titration from throat swabs, swabs were placed in 150 μl DMEM with 3% penicillin/streptomycin and the titer was quantified by limited dilution method.

Cn1nc(C(F)(F)F)cc1C(=O)Nc1ccc(S(=O)(=O)N2CCCC[C@H]2CCN2CCOCC2)cc1 [ERDRP-0519]
ERDRP-0519 trough serum concentration ([1]; 0 days post-treatment, individual animals): 0 µM and 0.05627 µM and 0.03323 µM | ERDRP-0519 trough serum concentration ([1]; 3 days post-treatment, individual animals): 0.9158 µM and 2.53 µM and 4.796 µM and 7.1567 µM and 0.8139 µM and 7.176 µM and 3.758 µM and 1.907 µM and 3.569 µM and 2.058 µM and 2.606 µM and 7.006 µM and 2.984 µM and 1.541 µM and 2.285 µM | ERDRP-0519 trough serum concentration ([1]; 7 days post-treatment, individual animals): 0.9763 µM and 1.28 µM and 2.908 µM and 3.21 µM and 2.4548 µM and 4.759 µM and 3.323 µM and 2.832 µM and 2.134 µM and 0.6741 µM and 2.096 µM and 3.644 µM and 0.525 µM and 0.5703 µM | ERDRP-0519 trough serum concentration ([1]; 10 days post-treatment, individual animals): 1.654 µM and 2.228 µM and 2.832 µM and 4.4753 µM and 4.4 µM and 4.664 µM and 1.699 µM and 1.669 µM and 0.9989 µM and 0.9857 µM and 2.153 µM and 3.116 µM and 0.6949 µM and 1.573 µM and 0.608 µM | ERDRP-0519 trough serum concentration ([1]; 14 days post-treatment, individual animals): 0.08309 µM and 0.0727 µM and 0.355 µM and 0.6534 µM and 1.862 µM and 2.172 µM and 2.474 µM and 1.513 µM and 0.2417 µM and 0.676 µM and 1.412 µM and 0.1537 µM and 0.3267 µM and 0.02398 µM | concentration at 7 days post-infection ([1]; both, monkey, serum, oral, 50 mg/kg twice daily, ERDRP-0519 serum conc., therapeutic(d7) group, day 7 post-infection, individual animals): 0 nM | Mean drug plasma concentration of all animals over the full study period ([1]; monkey, in vivo): ~ 1.6 µM | drug accumulation on repeat-dosing ([1]; multi-dose b.i.d., 15 animals): does not result in ERDRP-0519 accumulation | Temperature, Mean Diff, untreated vs. prophylactic ([2]; Row 1 (day 0)): -1.35 | Temperature, Mean Diff, untreated vs. therapeutic (d3) ([2]; Row 1 (day 0)): -0.9667 | Temperature, Mean Diff, untreated vs. therapeutic (d7) ([2]; Row 1 (day 0)): -0.7167 | Temperature, Mean Diff, untreated vs. prophylactic ([2]; Row 2 (day 3)): 0.5833 | Temperature, Mean Diff, untreated vs. therapeutic (d3) ([2]; Row 2 (day 3)): -0.05 | Temperature, Mean Diff, untreated vs. therapeutic (d7) ([2]; Row 2 (day 3)): -0.03333 | Temperature, Mean Diff, untreated vs. prophylactic ([2]; Row 3 (day 7)): 1.2 | Temperature, Mean Diff, untreated vs. therapeutic (d3) ([2]; Row 3 (day 7)): 0.5167 | Temperature, Mean Diff, untreated vs. therapeutic (d7) ([2]; Row 3 (day 7)): 0.4333 | Temperature, Mean Diff, untreated vs. prophylactic ([2]; Row 4 (day 10)): 0.5333 | Temperature, Mean Diff, untreated vs. therapeutic (d3) ([2]; Row 4 (day 10)): 0.3667 | Temperature, Mean Diff, untreated vs. therapeutic (d7) ([2]; Row 4 (day 10)): 0.5 | Temperature, Mean Diff, untreated vs. prophylactic ([2]; Row 5 (day 14)): -0.25 | Temperature, Mean Diff, untreated vs. therapeutic (d3) ([2]; Row 5 (day 14)): 0.4 | Temperature, Mean Diff, untreated vs. therapeutic (d7) ([2]; Row 5 (day 14)): 0.3 | Temperature, Mean Diff, untreated vs. prophylactic ([2]; Row 6 (day 17)): 0.1667 | Temperature, Mean Diff, untreated vs. therapeutic (d3) ([2]; Row 6 (day 17)): 0.24 | Temperature, Mean Diff, untreated vs. therapeutic (d7) ([2]; Row 6 (day 17)): 0.2333 | Temperature, Mean Diff, untreated vs. prophylactic ([2]; Row 7 (day 21)): -0.3167 | Temperature, Mean Diff, untreated vs. therapeutic (d3) ([2]; Row 7 (day 21)): -0.1 | Temperature, Mean Diff, untreated vs. therapeutic (d7) ([2]; Row 7 (day 21)): -0.1167 | Temperature ([2]; prophylactic group, day 0): 38.9 °C and 38.6 °C and 38.7 °C (2×) and 39.3 °C and 38.2 °C | Temperature ([2]; prophylactic group, day 3): 38.6 °C and 38.5 °C and 39.1 °C and 39 °C and 37.5 °C and 38.8 °C | Temperature ([2]; prophylactic group, day 7): 39.3 °C (2×) and 38.5 °C and 38.7 °C and 38.8 °C and 37.3 °C | Temperature ([2]; prophylactic group, day 10): 39.8 °C and 39.3 °C (2×) and 38.9 °C and 38.3 °C and 39.7 °C | Temperature ([2]; prophylactic group, day 14): 40.1 °C and 40.5 °C (2×) and 39.6 °C (2×) and 39.1 °C | Temperature ([2]; prophylactic group, day 17): 39.7 °C (2×) and 39.8 °C and 39.3 °C and 38.7 °C and 40 °C | Temperature ([2]; prophylactic group, day 21): 39.5 °C (2×) and 39.7 °C (2×) and 39.1 °C and 39.6 °C | Temperature, group mean (Mean 2) ([2]; prophylactic, Row 1 (day 0)): 38.73 | Temperature, group mean (Mean 2) ([2]; prophylactic, Row 2 (day 3)): 38.58 | Temperature, group mean (Mean 2) ([2]; prophylactic, Row 3 (day 7)): 38.65 | Temperature, group mean (Mean 2) ([2]; prophylactic, Row 4 (day 10)): 39.22 | Temperature, group mean (Mean 2) ([2]; prophylactic, Row 5 (day 14)): 39.9 | Temperature, group mean (Mean 2) ([2]; prophylactic, Row 6 (day 17)): 39.53 | Temperature, group mean (Mean 2) ([2]; prophylactic, Row 7 (day 21)): 39.52 | mean temperatures in the distinct groups ([2]; remained within the pre-infection range, all groups): less than 40 °C | Temperature ([2]; therapeutic (d3) group, day 0): 37.9 °C and 38.1 °C and 37.8 °C and 39.1 °C and 38.4 °C and 38.8 °C | Temperature ([2]; therapeutic (d3) group, day 3): 39.3 °C and 38.3 °C and 39.2 °C and 40 °C and 39.4 °C and 39.1 °C | Temperature ([2]; therapeutic (d3) group, day 7): 38.9 °C and 38.7 °C and 39.4 °C (2×) and 39.8 °C (2×) | Temperature ([2]; therapeutic (d3) group, day 10): 38.4 °C and 39 °C and 39.3 °C and 39.6 °C and 39.7 °C and 40.3 °C | Temperature ([2]; therapeutic (d3) group, day 14): 39.1 °C (2×) and 38.7 °C and 39.5 °C (2×) and 39.6 °C | Temperature ([2]; therapeutic (d3) group, day 17): 39.1 °C and 39.5 °C (2×) and 39.8 °C and 39.4 °C | Temperature ([2]; therapeutic (d3) group, day 21): 39.1 °C and 38.8 °C (2×) and 39.8 °C and 40 °C | Temperature, group mean (Mean 2) ([2]; therapeutic (d3), Row 1 (day 0)): 38.35 | Temperature, group mean (Mean 2) ([2]; therapeutic (d3), Row 2 (day 3)): 39.22 | Temperature, group mean (Mean 2) ([2]; therapeutic (d3), Row 3 (day 7)): 39.33 | Temperature, group mean (Mean 2) ([2]; therapeutic (d3), Row 4 (day 10)): 39.38 | Temperature, group mean (Mean 2) ([2]; therapeutic (d3), Row 5 (day 14)): 39.25 | Temperature, group mean (Mean 2) ([2]; therapeutic (d3), Row 6 (day 17), N = 5): 39.46 | Temperature, group mean (Mean 2) ([2]; therapeutic (d3), Row 7 (day 21), N = 5): 39.3 | Temperature ([2]; therapeutic (d7) group, day 0): 38.4 °C and 38.3 °C and 38 °C and 37.9 °C (2×) and 38.1 °C | Temperature ([2]; therapeutic (d7) group, day 3): 39.3 °C (2×) and 39.4 °C (2×) and 38.6 °C and 39.2 °C | Temperature ([2]; therapeutic (d7) group, day 7): 40 °C (2×) and 39.2 °C (2×) and 38.7 °C and 39.4 °C | Temperature, group mean (Mean 2) ([2]; therapeutic (d7), Row 1 (day 0)): 38.1 | Temperature, group mean (Mean 2) ([2]; therapeutic (d7), Row 2 (day 3)): 39.2 | Temperature, group mean (Mean 2) ([2]; therapeutic (d7), Row 3 (day 7)): 39.42 | Temperature, group mean (Mean 2) ([2]; therapeutic (d7), Row 4 (day 10)): 39.25 | Temperature, group mean (Mean 2) ([2]; therapeutic (d7), Row 5 (day 14)): 39.35 | Temperature, group mean (Mean 2) ([2]; therapeutic (d7), Row 6 (day 17)): 39.47 | Temperature, group mean (Mean 2) ([2]; therapeutic (d7), Row 7 (day 21)): 39.32 | neutralizing antibody titer, dilution factor [1/dilution] ([3]; prophylactic group, day 0, individual animals): 10 1/dilution | neutralizing antibody titer, dilution factor [1/dilution] ([3]; prophylactic group, day 3, individual animals): 10 1/dilution | neutralizing antibody titer, dilution factor [1/dilution] ([3]; prophylactic group, day 7, individual animals): 10 1/dilution | neutralizing antibody titer, dilution factor [1/dilution] ([3]; prophylactic group, day 10, individual animals): 10 1/dilution | neutralizing antibody titer, dilution factor [1/dilution] ([3]; prophylactic group, day 14, individual animals): 10 1/dilution (3×) and 80 1/dilution and 15 1/dilution and 30 1/dilution | neutralizing antibody titer, dilution factor [1/dilution] ([3]; prophylactic group, day 17, individual animals): 160 1/dilution and 240 1/dilution and 10 1/dilution (3×) and 17.5 1/dilution | neutralizing antibody titer, dilution factor [1/dilution] ([3]; prophylactic group, day 21, individual animals): 640 1/dilution and 200 1/dilution and 120 1/dilution and 10 1/dilution (2×) and 35 1/dilution | neutralizing antibody titer, dilution factor [1/dilution] ([3]; therapeutic (d3) group, day 0, individual animals): 10 1/dilution | neutralizing antibody titer, dilution factor [1/dilution] ([3]; therapeutic (d3) group, day 3, individual animals): 10 1/dilution | neutralizing antibody titer, dilution factor [1/dilution] ([3]; therapeutic (d3) group, day 7, individual animals): 10 1/dilution | neutralizing antibody titer, dilution factor [1/dilution] ([3]; therapeutic (d3) group, day 10, individual animals): 25 1/dilution and 10 1/dilution (2×) and 12.5 1/dilution | neutralizing antibody titer, dilution factor [1/dilution] ([3]; therapeutic (d3) group, day 14, individual animals): 800 1/dilution and 35 1/dilution and 10 1/dilution and 280 1/dilution and 400 1/dilution and 70 1/dilution | neutralizing antibody titer, dilution factor [1/dilution] ([3]; therapeutic (d3) group, day 17, individual animals): 200 1/dilution (2×) and 30 1/dilution and 240 1/dilution and 80 1/dilution | neutralizing antibody titer, dilution factor [1/dilution] ([3]; therapeutic (d3) group, day 21, individual animals): 320 1/dilution (2×) and 70 1/dilution and 140 1/dilution and 120 1/dilution | neutralizing antibody titer, dilution factor [1/dilution] ([3]; therapeutic (d7) group, day 0, individual animals): 10 1/dilution | neutralizing antibody titer, dilution factor [1/dilution] ([3]; therapeutic (d7) group, day 3, individual animals): 10 1/dilution (5×) and 12.5 1/dilution | neutralizing antibody titer, dilution factor [1/dilution] ([3]; therapeutic (d7) group, day 7, individual animals): 10 1/dilution (5×) and 15 1/dilution | neutralizing antibody titer, dilution factor [1/dilution] ([3]; therapeutic (d7) group, day 10, individual animals): 20 1/dilution and 12.5 1/dilution
